Consider 4 molecules from publication PMC12249711, “Comprehensive Evaluation of 1H-Isoindole-1,3(2H)-Dione Derivatives: Pharmacokinetic Studies and Analgesic Potential in Various Pain Models” (International Journal of Molecular Sciences, 2025).

Molecules are shown by their SMILES. Where two headings read alike, the source gives them in different places.

Data set [1] can be described thus: Pharmacokinetic study after single i.p. administration, serum and brain concentrations by LC-MS/MS, non-compartmental analysis. In kind it is in vivo, Albino Swiss mice. As to conditions: mice; for Kp: brain/serum, read-out: Kbrain/serum (brain/serum partitioning coefficient); for Kp / MRT / Tmax / half-life / k el / CL/F / Vd/F / AUC0-inf / AUC0–8h: 5 mg/kg i.p.; for half-life: read-out: t1/2(λz) half-life in the elimination phase (converted); for k el: read-out: λz (terminal elimination rate constant) (converted); for Vd/F: read-out: Vz/F. The procedure:
The compounds F1, F2, F3, and F4 were suspended in a 1% Tween 80 solution in sterile water for injection and given to mice i.p. at a dose of 5 mg/kg (n = 3 per time point; all mice in procedure = 96) as a single injection at a volume of 10 mL/kg. At specific time points (5; 15; 30; 60; 120; 240; 360; and 480 min after compound administration), mice were sacrificed by decapitation under isoflurane (5%) anesthesia to harvest blood and brain for assays. After allowing the blood to coagulate for 20 min at room temperature, blood samples were centrifuged for 10 min at 8000 rpm (Eppendorf miniSpin centrifuge) to obtain serum. Moreover, brains were removed (at the same time point) from skulls and washed with 0.9% NaCl. The obtained serum and brains were stored at −80 °C until analysis.
Concentrations of compounds F1 to F4 in mice brains and serum were measured by the liquid chromatography tandem mass spectrometry (LC-MS/MS) method using a Sciex QTRAP 4500 triple quadrupole mass spectrometer coupled to an Excion LC AC HPLC system (both from Danaher Corporation, Washington, DC, USA). The brains were homogenized in distilled water at the ratio of 1:4 (w/v) with a tissue homogenizer ULTRA-TURRAX T10 basic (IKA, Königswinter, Germany). The stock solutions of analyzed compounds were prepared in methanol at the concentration of 1 mg/mL. For the preparation of calibration curves, working standard solutions were prepared in methanol by the serial dilution of the stock solution at the following concentrations: 0.005; 0.01; 0.1; 0.25; 0.5; 1; 2.5; 5; and 10 µg/mL. To prepare samples for the calibration curve, 45 μL of matrix (blank plasma or brain homogenate) was spiked with 5 μL of standard working solution at an appropriate concentration level and vortexed for 10 s. Brain homogenates or serum samples (50 µL) as well as calibration samples were deproteinized with 150 μL of 0.1% formic acid in acetonitrile with an addition of internal standard (valsartan), shaken for 10 min (IKA Vibrax VXR, Königswinter, Germany), and centrifuged for 5 min at a speed of 8000× g (Eppendorf miniSpin centrifuge, Hamburg, Germany). Then, brain or serum supernatants were transferred into the autosampler vials. The autosampler temperature was maintained at 15 °C and a sample volume of 1 μL was injected into the LC-MS/MS system.
Chromatographic separation was carried out on the Hypersil GoldTM C18 analytical column (2.1 × 50 mm, 3 µm, Thermo Scientific, Waltham, MA, USA) with the oven temperature set at 30 °C. The mobile phase containing 0.1% formic acid in acetonitrile and 0.1% formic acid in water was delivered at a flow rate of […] in the gradient mode. Electrospray ionization (ESI) in the positive ion mode was used for ion production. The tandem mass spectrometer was operated at unit resolution in the selected reaction monitoring mode (SRM), monitoring the transitions of the protonated molecular ions m/z 366 to 201 (CE = 40 eV) and m/z 366 to 160 (CE = 40 eV) for compound F1, m/z 396 to 190 (CE = 39 eV) and m/z 396 to 160 (CE = 49 eV) for compound F2, m/z 434 to 145 (CE = 95 eV) and m/z 434 to 160 (CE = 47 eV) for compound F3, and m/z 456 to 167 (CE = 27 eV) and m/z 456 to 152 (CE = 85 eV) for compound F4. The first pair was used as a quantifier and the second for the identity verification—qualifier. One pair (m/z 436 to 235; CE = 42 eV) was monitored for valsartan used as an internal standard. The mass spectrometric conditions were optimized by continuous infusion of the standard solutions at the rate of 7 μL/min using a Harvard infusion pump (Harvard Apparatus, Holliston, MA, USA). The ion source temperature was maintained at 450 °C and the ion spray voltage was set at 4500 V. The curtain gas (CUR) was set at 40 and the collision gas (CAD) at Medium. The calibration curves were constructed by plotting the ratio of the peak area of the studied compound to internal standard (IS) versus drug concentration and generated by weighted (1/x·x) linear regression analysis. […]

The next data set relates to mice. The experiment in a line: Oxaliplatin-induced neuropathic pain, von Frey test (tactile allodynia). The conditions noted are these: 10 mg/kg i.p. In kind it is in vivo, Albino Swiss mice. The procedure: Furthermore, to assess the response to mechanical stimuli (i.e., tactile/mechanical) allodynia), the von Frey test was carried out with application of the electronic von Frey unit (Panlab, Cornellà de Llobregat, Spain) equipped with a fiber, the distal end of which was applied to the right hind paw of the mouse. The device automatically recorded the pressure force (in grams) applied until the paw withdrawal response occurred. In the absence of pain, an increase in the pressure value was observed. The force at which the animal withdrew its paw was considered the pain threshold for the mechanical stimulus. Measurements were taken before streptozotocin administration (in normoglycemic mice) and again 21 days later, both before and after compound administration, in diabetic mice (glucose level > 300 mg/dL) that had developed mechanical allodynia. On the day of the experiment, each mouse was placed in an observation chamber with a wire mesh bottom and was allowed to habituate for 1 h. After the habituation period, in order to obtain baseline values, each mouse was tested 3 times alternately in each hind paw, allowing at least 30 s between each measurement. Then, the mice were pretreated intraperitoneally with compound or vehicle, and 30 min later the animals were tested again and three measurements were taken, the mean of which was calculated to obtain the mean values after drug administration for each mouse. The anti-allodynic effect was defined as an increase in the pressure force value required to elicit a pain response, compared to the control group.
To assess the response to mechanical stimuli (i.e., tactile/mechanical allodynia), the von Frey test was performed using an electronic von Frey device (Bioseb, Vitrolles, France), as described in Section 4.4.5. In this assay, measurements were taken before and 3 h after oxaliplatin administration, as well as 7 days later. […] A total of 30 min after administration, the assessment was repeated using the same procedure.

On the set-up of data set [2]: method as in PMID 35396875. As to conditions: within the tested dose range; cited from earlier work.
[3] abbreviates: Albino Swiss, mouse, ip, serum, 5 min after 5 mg/kg i.p., read-out: Cmax (maximal concentration).
Where [4] appears, read: brain, 5 mg/kg i.p. single dose.
[5] abbreviates: serum, 5 mg/kg i.p. single dose.
The mark [6] stands for this setting: early phase, 3 h after oxaliplatin.
Where [7] appears, read: late phase, 7 days after oxaliplatin.

The MRT is the average time that molecules of a dose stay in the body. By Tmax is commonly meant the time at which the peak concentration occurs. The term CL/F denotes the apparent clearance, not corrected for the fraction that reaches the circulation. With `O=C1c2ccccc2C(=O)N1CC(O)CN1CCN(c2ccccc2)CC1` (centres unmarked) [Compound F1], the Kp in data set [1] (Albino Swiss, mouse, ip) stood at 1.77. Also, in data set [1] (Albino Swiss, mouse, ip, brain), the MRT was 81.6 min, the Tmax was found to be 4.98 min, the half-life is 54.6 min and the k el was 0.000211 s⁻¹. Besides, the Cmax in data set [1] (setting [3]) turned out to be 596 ng/mL. Moreover, in data set [1] (Albino Swiss, mouse, ip, serum), the CL/F is 395 mL/min/kg, the MRT was 79.2 min, the Tmax was 4.98 min and the Vd/F turned out to be 32.6 L/kg. For the same molecule, in data set [1] (Albino Swiss, mouse, ip, serum), the half-life was 57 min and the k el is 0.000203 s⁻¹. Also, in data set [1] (brain), the AUC0-inf was 374.60 µg∙h/L(kg) and the “AUC0–8h” value is listed as 368.04 µg∙h/L(kg). Moreover, the Cmax in data set [1] (setting [4]) is 970 µg/L(kg). In data set [1] (serum), the AUC0-inf is 211.22 µg∙h/L(kg) and the “AUC0–8h” value is recorded as 205.95 µg∙h/L(kg). Besides, the Cmax in data set [1] (setting [5]) is given as 595.75 µg/L(kg). In the data set with mice (setting [6]), the “Analgesic activity (von Frey)” value is 60.7% and the “Pain threshold after compound administration (von Frey)” value (from here on “Pain threshold”) turned out to be 3.39 ± 0.46 g. Further, in the data set with mice (setting [7]), the “Analgesic activity (von Frey)” value turned out to be 35% and the “Pain threshold” value is on record as 3.9 ± 0.34 g. Besides, the “Effect on locomotor activity / sedation” value in data set [2] is “mild sedative effects”.
On to `COc1ccccc1N1CCN(CC(O)CN2C(=O)c3ccccc3C2=O)CC1` (centres unmarked) [Compound F2], for which the Kp in data set [1] (Albino Swiss, mouse, ip) was 0.79. Moreover, in data set [1] (Albino Swiss, mouse, ip, brain), the MRT came to 84.6 min, the Tmax amounted to 4.98 min, the half-life is 54 min and the k el was 0.000214 s⁻¹. The Cmax in data set [1] (setting [3]) is 700 ng/mL. For the same molecule, in data set [1] (Albino Swiss, mouse, ip, serum), the CL/F is 279 mL/min/kg, the MRT turned out to be 68.4 min, the Tmax worked out at 4.98 min and the Vd/F was 18.2 L/kg. Further, in data set [1] (Albino Swiss, mouse, ip, serum), the half-life is 45 min and the k el was 0.000256 s⁻¹. For the same molecule, in data set [1] (brain), the AUC0-inf is 237.16 µg∙h/L(kg) and the “AUC0–8h” value was 230.83 µg∙h/L(kg). In addition, in data set [1] (setting [4]), the Cmax is on record as 465.38 µg/L(kg). In addition, in data set [1] (serum), the AUC0-inf is reported as 298.26 µg∙h/L(kg) and the “AUC0–8h” value is given as 292.78 µg∙h/L(kg). Besides, the Cmax in data set [1] (setting [5]) is 699.75 µg/L(kg). In addition, in the data set on mice (setting [6]), the “Analgesic activity (von Frey)” value is 81% and the “Pain threshold” value turned out to be 3.91 ± 0.29 g. In the data set on mice (setting [7]), the “Analgesic activity (von Frey)” value turned out to be 45.45% and the “Pain threshold” value was 4.0 ± 0.34 g. Also, the “Effect on locomotor activity / sedation” value in data set [2] was “dose-dependent suppression of spontaneous locomotor activity”.
With `O=C1c2ccccc2C(=O)N1CC(O)CN1CCN(c2cccc(C(F)(F)F)c2)CC1` (centres unmarked) [Compound F3], in data set [1] (Albino Swiss, mouse, ip), the Kp was determined as 2.05. Also, in data set [1] (Albino Swiss, mouse, ip, brain), the mean residence time (MRT) worked out at 190 min, the Tmax worked out at 15 min, the half-life was 78.6 min and the k el is 0.000147 s⁻¹. The Cmax in data set [1] (setting [3]) was determined as 210 ng/mL. Further, in data set [1] (Albino Swiss, mouse, ip, serum), the CL/F is 297 mL/min/kg, the MRT came to 168 min, the Tmax stood at 4.98 min and the Vd/F was found to be 32.4 L/kg. Moreover, in data set [1] (Albino Swiss, mouse, ip, serum), the half-life was 75.6 min and the k el is 0.000153 s⁻¹. In addition, in data set [1] (brain), the AUC0-inf is 573.90 µg∙h/L(kg) and the “AUC0–8h” value was 520.05 µg∙h/L(kg). Further, the Cmax in data set [1] (setting [4]) was 202.25 µg/L(kg). Moreover, in data set [1] (serum), the AUC0-inf is 280.26 µg∙h/L(kg) and the “AUC0–8h” value is 258.81 µg∙h/L(kg). Moreover, the Cmax in data set [1] (setting [5]) is 210.25 µg/L(kg). Besides, in the data set on mice (setting [6]), the “Analgesic activity (von Frey)” value worked out at 82.9% and the “Pain threshold” value turned out to be 3.53 ± 0.08 g. Further, in the data set on mice (setting [7]), the “Analgesic activity (von Frey)” value was determined as 37.59% and the “Pain threshold” value was determined as 3.99 g. The “Effect on locomotor activity / sedation” value in data set [2] is on record as “mild sedative effects”.
For `O=C1c2ccccc2C(=O)N1CC(O)CN1CCN(C(c2ccccc2)c2ccccc2)CC1` (centres unmarked) [Compound F4], the Kp in data set [1] (Albino Swiss, mouse, ip) is 1.62. Moreover, in data set [1] (Albino Swiss, mouse, ip, brain), the MRT worked out at 97.8 min, the Tmax was found to be 15 min, the half-life is 46.8 min and the k el is 0.000247 s⁻¹. The Cmax in data set [1] (setting [3]) came out at 131 ng/mL. For the same molecule, in data set [1] (Albino Swiss, mouse, ip, serum), the CL/F is 800 mL/min/kg, the MRT amounted to 88.2 min, the Tmax was found to be 4.98 min and the Vd/F stood at 55.8 L/kg. In data set [1] (Albino Swiss, mouse, ip, serum), the half-life was 48 min and the k el is 0.000239 s⁻¹. Also, in data set [1] (brain), the AUC0-inf was 168.99 µg∙h/L(kg) and the “AUC0–8h” value is listed as 164.50 µg∙h/L(kg). In data set [1] (setting [4]), the Cmax is 163.5 µg/L(kg). For the same molecule, in data set [1] (serum), the AUC0-inf is on record as 104.12 µg∙h/L(kg) and the “AUC0–8h” value is on record as 101.99 µg∙h/L(kg). Moreover, the Cmax in data set [1] (setting [5]) is on record as 130.58 µg/L(kg). In the data set with mice (setting [6]), the “Analgesic activity (von Frey)” value is recorded as 76.2% and the “Pain threshold” value stood at 3.56 ± 0.32 g. For the same molecule, in the data set with mice (setting [7]), the “Analgesic activity (von Frey)” value was 24.39% and the “Pain threshold” value is 3.57 ± 0.33 g. The “Effect on locomotor activity / sedation” value in data set [2] was “did not impair locomotor activity”.
